According to patent publication US11618742B2, “Radical polymerization initiator, composition containing same, cured product of composition, production method for cured product, and compound” (ADEKA CORPORATION, priority 2018, dated 2023):

How the values were obtained:
[1] = Solubility in water; format: physicochemical; conditions: 25° C., RH 65%, 100 g deionized water, added 0.1 g at a time
Protocol: Specifically, the measurement is performed by adding the compound in an amount of 0.1 g at a time.

[2] = Maximum absorption wavelength (absorption spectrum, spectrophotometer); format: physicochemical
Text: (2) load the measurement aqueous solution to a quartz cell (optical path length=10 mm, thickness 1.25 mm), and measure the absorption spectrum using a spectrophotometer (e.g., visible-ultraviolet absorption spectrometer V-670 manufactured by JASCO Corporation). As the absorption spectrum of the measurement aqueous solution, a corrected absorption spectrum obtained by measuring the absorption spectrum of water alone in advance and deducting this absorption spectrum of water from the absorption spectrum of the measurement aqueous solution is used. […] (2) The thus obtained measurement aqueous solutions were each loaded to a quartz cell (optical path length—10 mm, thickness 1.25 mm), and an absorption spectrum was measured using a spectrophotometer (e.g., visible-ultraviolet absorption spectrometer V-670 manufactured by JASCO Corporation). […] Further, as the absorption spectrum, a corrected absorption spectrum obtained by measuring the absorption spectrum of the solvent itself in advance and deducting this absorption spectrum of the solvent from the absorption spectrum of the measurement solution was used.

[3] = 0.1%-by-mass aqueous solution, range of 300 nm to 600 nm
[4] = measurement solution in acetonitrile (low solubility in water)

Compound | Solubility in 100 parts by mass of water [1] | Maximum absorption wavelength [2, 3] | Maximum absorption wavelength [2, 4]
O=C(O)c1cccc2c(=O)c3ccccc3sc12 [Compound 1] | 0.9 parts by mass |  | 
O=C(O)c1cccc2c(=O)c3ccccc3sc12 [Compound 61] | 1.2 parts by mass |  | 
CC(C)(O)C(=O)c1ccc(OCCO)cc1 [Compound 101] | 0.8 parts by mass | 270 nm | 
O=C(c1ccccc1)c1ccccc1 [Compound 103, benzophenone] |  |  | 253 nm
CC12CCC(C(=O)C1=O)C2(C)C (centres unmarked) [Compound 104, camphor quinone] | <0.1 parts by mass |  | 460 nm
Cc1cc(C)c(C(=O)P(=O)(O)c2ccccc2)c(C)c1 [Compound 105] | ≥50 parts by mass | 371 nm | 
O=C(O)c1cccc2c(=O)c3ccccc3sc12 [Compound 106, thioxanthone carboxylic acid] | <0.1 parts by mass |  | 391 nm
